Measured values taken from patent US20040186117A1, “Marker” (priority 2001, published 2004).
Values joined by “and” are separate entries in the source; they are usually repeats but may differ in a detail not shown here. Equal entries are not always repeated. “Also recorded” adds a separate entry of the source.

What was measured:
cyclin D1 in HT29 cells = experiment: Western blotting for cyclin D1 expression in HT29 cells; conditions: HT29, 50 μM
[1] = tested on: c-FOS protein in HT29 cells; conditions: for effect on c-FOS protein level: HT29, 50 μM
[2] = tested on: RB phosphorylation (Ser780, Ser608) in HT29 cells; experiment: Western blotting for RB phosphorylation in HT29 cells; type: cell-based, human; conditions: for time of loss of RB phosphorylation after exposure: HT29, 50 μM; for effect on RB phosphorylation: HT29, equitoxic (3×96 h IC50) concentration, 24 h
Description: (§1) This antibody was selected as a representative marker for all tested phosphorylation sites of RB (see Section 2). […] A general loss of RB phosphorylation is indicated by a switch from a broad band to a thin, more rapidly migrating band for total RB (see Section 2, FIG. 9).
(§2) Samples were harvested for western blotting or for cell cycle analysis by FACS. […] Since validating the original phospho-specific antibodies, a Ser608 antibody became available from Dr Sibylle Mittnacht. This site is potentially phosphorylated by CDK4/cyclin D1 and CDK2/cyclin A (Zarkowska and Mittnacht, J. Biol Chem (1997) 9:272 12738-46).

[3] = tested on: ERK1/2 phosphorylation in KM12 cells; experiment: Western blotting for phospho-ERK1/2 in KM12 cells; type: cell-based, human
[4] = tested on: ELK-1 phosphorylation (Ser383) in HT29 cells
[5] = tested on: ERK1/2 phosphorylation in HT29 cells; experiment: Western blotting for phospho-ERK1/2 in HT29 cells; type: cell-based, human; conditions: for effect on ERK phosphorylation: HT29, equitoxic (3×96 h IC50) concentration, 24 h
[6] = tested on: RB phosphorylation (Ser780) in KM12 cells; conditions: KM12, 50 μM
Description: as §1, §2

[7] = HT29, 10 μM with 50 μM R-roscovitine

Structure (SMILES) | effect on cyclin D1 expression (cyclin D1 in HT29 cells) | effect on c-FOS protein level [1] | time of loss of RB phosphorylation after exposure [2] | effect on ERK phosphorylation [5] | effect on RB phosphorylation [2] | also measured
CC[C@H](CO)Nc1nc(NCc2ccccc2)c2ncn(C(C)C)c2n1 (racemic) [roscovitine] | decreased levels | increased levels | 24 h | – | – | –
CC[C@H](CO)Nc1nc(NCc2ccccc2)c2ncn(C(C)C)c2n1 [R-roscovitine, 2-(R)-(1-ethyl-2-hydroxyethylamino)-6-benzylamino-9-isopropylpurine] | inhibited the expression | induction of c-FOS protein | 12 to 24 h and 24 h | induced ERK phosphorylation | inhibited RB phosphorylation | kinetics of induction of ERK phosphorylation compared with HT29 ([3]; KM12, 50 μM time course): slower kinetics; effect on phosphorylated ERK1/2 ([3]; KM12, increasing concentrations, 24 h exposure): increase of phosphorylated ERK1/2; effect on ELK-1 phosphorylation ([4]; HT29, 50 μM, after 4 h): strong induction; phospho-ERK1/2 level at 24 h ([5]; HT29, 50 μM time course): remaining above basal levels; time of onset of induction of ERK phosphorylation ([5]; HT29, 50 μM time course): 1 h; time at which induction of ERK phosphorylation was observed ([5]; HT29, 50 μM, experiment with U0126 (FIG. 5B)): 4 to 24 h; effect on phosphorylated ERK1/2 ([5]; HT29, increasing concentrations, 24 h exposure): increase of phosphorylated ERK1/2; time at which an increase of c-FOS protein was detected ([1]; HT29, 50 μM time course): 12 to 24 h; time of loss of RB phosphorylation after exposure [6]: 12 to 24 h
N#CC(=C(/N)Sc1ccccc1N)/C(C#N)=C(\N)Sc1ccccc1N [U0126, reference compound] | – | – | – | – | – | effect on R-roscovitine-induced ELK-1 phosphorylation [4, 7]: blocked the phosphorylation; effect on R-roscovitine-induced ERK phosphorylation [5, 7]: prevented the induction; effect on R-roscovitine-induced increase in c-FOS [1, 7]: blocked
O=C1Cc2c([nH]c3ccc([N+](=O)[O-])cc23)-c2ccccc2N1 [alsterpaullone] | – | – | – | fails to induce; also recorded: no effect upon ERK | failed to inhibit RB phosphorylation | –
CN1CC[C@H](c2c(O)cc(O)c3c(=O)cc(-c4ccccc4Cl)oc23)[C@H](O)C1 [flavopiridol] | – | – | – | fails to induce; also recorded: no effect upon ERK | failed to inhibit RB phosphorylation | –
CC(C)[C@H](CO)Nc1nc(Nc2cccc(Cl)c2)c2ncn(C(C)C)c2n1 [purvalanol A] | – | – | – | fails to induce; also recorded: failed to induce ERK phosphorylation | inhibited RB phosphorylation | –
